Data: ChEMBL document CHEMBL1133517, “Design, radiosynthesis, and biodistribution of a new potent and selective ligand for in vivo imaging of the adenosine A(2A) receptor system using positron emission tomography” (J Med Chem, 2000)

How the values were obtained:
Rattus norvegicus [1] = species on record: Rattus norvegicus; experiment: Biodistribution in rat testes after 5 min time interval; type: ADME, organism-based, Testis; settings: in vivo
Rattus norvegicus [2] = species on record: Rattus norvegicus; experiment: Biodistribution in rat trachea after 90 min time interval; type: ADME, organism-based; settings: in vivo, 1.5 h
Rattus norvegicus [3] = species on record: Rattus norvegicus; experiment: Biodistribution in rat heart after 90 min time interval; type: ADME, organism-based; settings: in vivo, 1.5 h
Rattus norvegicus [4] = species on record: Rattus norvegicus; experiment: Biodistribution in rat pons after 5 min time interval; type: ADME, organism-based; settings: in vivo
Rattus norvegicus [5] = species on record: Rattus norvegicus; experiment: Biodistribution in rat lung after 60 min time interval; type: ADME, organism-based; settings: in vivo, 1 h
Rattus norvegicus [6] = species on record: Rattus norvegicus; experiment: Biodistribution in rat anti-CTX after 90 min time interval; type: ADME, organism-based; settings: in vivo, 1.5 h
Rattus norvegicus [7] = species on record: Rattus norvegicus; experiment: Biodistribution in rat testes after 30 min time interval; type: ADME, organism-based, Testis; settings: in vivo, 0.5 h
Rattus norvegicus [8] = species on record: Rattus norvegicus; experiment: Biodistribution in rat muscle after 90 min time interval; type: ADME, organism-based, Muscle tissue; settings: in vivo, 1.5 h
Rattus norvegicus [9] = species on record: Rattus norvegicus; experiment: Biodistribution in rat hypothalamus after 60 min time interval; type: ADME, organism-based; settings: in vivo, 1 h
Rattus norvegicus [10] = species on record: Rattus norvegicus; experiment: Biodistribution in rat trachea after 30 min time interval; type: ADME, organism-based; settings: in vivo, 0.5 h
Rattus norvegicus [11] = species on record: Rattus norvegicus; experiment: Biodistribution in rat pons after 30 min time interval; type: ADME, organism-based; settings: in vivo, 0.5 h
Rattus norvegicus [12] = species on record: Rattus norvegicus; experiment: Biodistribution in rat adrenal after 15 min time interval; type: ADME, organism-based; settings: in vivo, 0.25 h
Rattus norvegicus [13] = species on record: Rattus norvegicus; experiment: Biodistribution in rat muscle after 30 min time interval; type: ADME, organism-based, Muscle tissue; settings: in vivo, 0.5 h
Rattus norvegicus [14] = species on record: Rattus norvegicus; experiment: Biodistribution in rat trachea after 5 min time interval; type: ADME, organism-based; settings: in vivo
Rattus norvegicus [15] = species on record: Rattus norvegicus; experiment: Biodistribution in rat striatum after 30 min time interval; type: ADME, organism-based; settings: in vivo, 0.5 h
Rattus norvegicus [16] = species on record: Rattus norvegicus; experiment: Biodistribution in rat hippocampus after 60 min time interval; type: ADME, organism-based; settings: in vivo, 1 h
Rattus norvegicus [17] = species on record: Rattus norvegicus; experiment: Biodistribution in rat kidney after 5 min time interval; type: ADME, organism-based; settings: in vivo
Rattus norvegicus [18] = species on record: Rattus norvegicus; experiment: Biodistribution in rat hypothalamus after 5 min time interval; type: ADME, organism-based; settings: in vivo
Rattus norvegicus [19] = species on record: Rattus norvegicus; experiment: Biodistribution in rat pituitary after 90 min time interval; type: ADME, organism-based; settings: in vivo, 1.5 h
Rattus norvegicus [20] = species on record: Rattus norvegicus; experiment: Biodistribution in rat hippocampus after 5 min time interval; type: ADME, organism-based; settings: in vivo
Rattus norvegicus [21] = species on record: Rattus norvegicus; experiment: Biodistribution in rat spleen after 30 min time interval; type: ADME, organism-based; settings: in vivo, 0.5 h
Rattus norvegicus [22] = species on record: Rattus norvegicus; experiment: Biodistribution in rat blood after 5 min time interval; type: ADME, organism-based; settings: in vivo
Rattus norvegicus [23] = species on record: Rattus norvegicus; experiment: Biodistribution in rat liver after 5 min time interval; type: ADME, organism-based; settings: in vivo
Rattus norvegicus [24] = species on record: Rattus norvegicus; experiment: Biodistribution in rat lung after 5 min time interval; type: ADME, organism-based; settings: in vivo
Rattus norvegicus [25] = species on record: Rattus norvegicus; experiment: Biodistribution in rat thalamus after 15 min time interval; type: ADME, organism-based; settings: in vivo, 0.25 h
Rattus norvegicus [26] = species on record: Rattus norvegicus; experiment: Biodistribution in rat cerebellem after 30 min time interval; type: ADME, organism-based, Cerebellum; settings: in vivo, 0.5 h
Rattus norvegicus [27] = species on record: Rattus norvegicus; experiment: Biodistribution in rat plasma after 60 min time interval; type: ADME, organism-based; settings: in vivo, 1 h
Rattus norvegicus [28] = species on record: Rattus norvegicus; experiment: Biodistribution in rat trachea after 60 min time interval; type: ADME, organism-based; settings: in vivo, 1 h
Rattus norvegicus [29] = species on record: Rattus norvegicus; experiment: Biodistribution in rat adrenal after 30 min time interval; type: ADME, organism-based; settings: in vivo, 0.5 h
Rattus norvegicus [30] = species on record: Rattus norvegicus; experiment: Biodistribution in rat plasma after 15 min time interval; type: ADME, organism-based; settings: in vivo, 0.25 h
Rattus norvegicus [31] = species on record: Rattus norvegicus; experiment: Biodistribution in rat lung after 90 min time interval; type: ADME, organism-based; settings: in vivo, 1.5 h
Rattus norvegicus [32] = species on record: Rattus norvegicus; experiment: Biodistribution in rat intestine after 60 min time interval; type: ADME, organism-based; settings: in vivo, 1 h
Rattus norvegicus [33] = species on record: Rattus norvegicus; experiment: Biodistribution in rat pons after 60 min time interval; type: ADME, organism-based; settings: in vivo, 1 h
Rattus norvegicus [34] = species on record: Rattus norvegicus; experiment: Biodistribution in rat plasma after 90 min time interval; type: ADME, organism-based; settings: in vivo, 1.5 h
Rattus norvegicus [35] = species on record: Rattus norvegicus; experiment: Biodistribution in rat cerebellem after 15 min time interval; type: ADME, organism-based, Cerebellum; settings: in vivo, 0.25 h
Rattus norvegicus [36] = species on record: Rattus norvegicus; experiment: Biodistribution in rat blood after 30 min time interval; type: ADME, organism-based; settings: in vivo, 0.5 h
Rattus norvegicus [37] = species on record: Rattus norvegicus; experiment: Biodistribution in rat hippocampus after 30 min time interval; type: ADME, organism-based; settings: in vivo, 0.5 h
Rattus norvegicus [38] = species on record: Rattus norvegicus; experiment: Biodistribution in rat lung after 30 min time interval; type: ADME, organism-based; settings: in vivo, 0.5 h
Rattus norvegicus [39] = species on record: Rattus norvegicus; experiment: Biodistribution in rat intestine after 90 min time interval; type: ADME, organism-based; settings: in vivo, 1.5 h
Rattus norvegicus [40] = species on record: Rattus norvegicus; experiment: Biodistribution in rat heart after 30 min time interval; type: ADME, organism-based; settings: in vivo, 0.5 h
Rattus norvegicus [41] = species on record: Rattus norvegicus; experiment: Biodistribution in rat muscle after 5 min time interval; type: ADME, organism-based, Muscle tissue; settings: in vivo
Rattus norvegicus [42] = species on record: Rattus norvegicus; experiment: Biodistribution in rat anti-CTX after 30 min time interval; type: ADME, organism-based; settings: in vivo, 0.5 h
Rattus norvegicus [43] = species on record: Rattus norvegicus; experiment: Biodistribution in rat hippocampus after 15 min time interval; type: ADME, organism-based; settings: in vivo, 0.25 h
Rattus norvegicus [44] = species on record: Rattus norvegicus; experiment: Biodistribution in rat kidney after 15 min time interval; type: ADME, organism-based; settings: in vivo, 0.25 h
Rattus norvegicus [45] = species on record: Rattus norvegicus; experiment: Biodistribution in rat liver after 15 min time interval; type: ADME, organism-based; settings: in vivo, 0.25 h
Rattus norvegicus [46] = species on record: Rattus norvegicus; experiment: Biodistribution in rat anti-CTX after 5 min time interval; type: ADME, organism-based; settings: in vivo
Rattus norvegicus [47] = species on record: Rattus norvegicus; experiment: Biodistribution in rat liver after 60 min time interval; type: ADME, organism-based; settings: in vivo, 1 h
Rattus norvegicus [48] = species on record: Rattus norvegicus; experiment: Biodistribution in rat hypothalamus after 90 min time interval; type: ADME, organism-based; settings: in vivo, 1.5 h
Rattus norvegicus [49] = species on record: Rattus norvegicus; experiment: Biodistribution in rat adrenal after 60 min time interval; type: ADME, organism-based; settings: in vivo, 1 h
Rattus norvegicus [50] = species on record: Rattus norvegicus; experiment: Biodistribution in rat plasma after 30 min time interval; type: ADME, organism-based; settings: in vivo, 0.5 h

## [11CH3]Oc1ccc(CCCn2ncc3c2nc(N)n2nc(-c4ccco4)nc32)cc1
Rattus norvegicus [1]
  ID/g: 0.12%
Rattus norvegicus [2]
  ID/g: 0.03%
Rattus norvegicus [3]
  ID/g: 0.04%
Rattus norvegicus [4]
  ID/g: 0.2%
Rattus norvegicus [5]
  ID/g: 0.37%
Rattus norvegicus [6]
  ID/g: 0.02%
Rattus norvegicus [7]
  ID/g: 0.23%
Rattus norvegicus [8]
  ID/g: 0.02%
Rattus norvegicus [9]
  ID/g: 0.02%
Rattus norvegicus [10]
  ID/g: 0.09%
Rattus norvegicus [11]
  ID/g: 0.06%
Rattus norvegicus [12]
  ID/g: 0.44%
Rattus norvegicus [13]
  ID/g: 0.05%
Rattus norvegicus [14]
  ID/g: 0.17%
Rattus norvegicus [15]
  ID/g: 0.2%
Rattus norvegicus [16]
  ID/g: 0.02%
Rattus norvegicus [17]
  ID/g: 0.69%
Rattus norvegicus [18]
  ID/g: 0.16%
Rattus norvegicus [19]
  ID/g: 0.03%
Rattus norvegicus [20]
  ID/g: 0.17%
Rattus norvegicus [21]
  ID/g: 0.07%
Rattus norvegicus [22]
  ID/g: 0.13%
Rattus norvegicus [23]
  ID/g: 0.94%
Rattus norvegicus [24]
  ID/g: 0.38%
Rattus norvegicus [25]
  ID/g: 0.1%
Rattus norvegicus [26]
  ID/g: 0.05%
Rattus norvegicus [27]
  ID/g: 0.07%
Rattus norvegicus [28]
  ID/g: 0.04%
Rattus norvegicus [29]
  ID/g: 0.25%
Rattus norvegicus [30]
  ID/g: 0.13%
Rattus norvegicus [31]
  ID/g: 0.23%
Rattus norvegicus [32]
  ID/g: 0.1%
Rattus norvegicus [33]
  ID/g: 0.02%
Rattus norvegicus [34]
  ID/g: 0.07%
Rattus norvegicus [35]
  ID/g: 0.1%
Rattus norvegicus [36]
  ID/g: 0.06%
Rattus norvegicus [37]
  ID/g: 0.04%
Rattus norvegicus [38]
  ID/g: 0.2%
Rattus norvegicus [39]
  ID/g: 0.16%
Rattus norvegicus [40]
  ID/g: 0.09%
Rattus norvegicus [41]
  ID/g: 0.15%
Rattus norvegicus [42]
  ID/g: 0.06%
Rattus norvegicus [43]
  ID/g: 0.09%
Rattus norvegicus [44]
  ID/g: 0.49%
Rattus norvegicus [45]
  ID/g: 0.74%
Rattus norvegicus [46]
  ID/g: 0.18%
Rattus norvegicus [47]
  ID/g: 0.36%
Rattus norvegicus [48]
  ID/g: 0.02%
Rattus norvegicus [49]
  ID/g: 0.13%
Rattus norvegicus [50]
  ID/g: 0.08%
